From patent US11840686B2, “Modulation of prekallikrein (PKK) expression” (Ionis Pharmaceuticals, Inc., priority 2013, dated 2023)
Strand notation (5' to 3'): a small letter for the sugar, then the base; units joined by * are phosphorothioate-linked, units joined directly phosphodiester-linked; [ ] holds rarer units or linkages, { } end groups; capitals alone tell only the bases. e = 2'-O-(2-methoxyethyl) (MOE); k = constrained ethyl (cEt); [5mC] = 5-methylcytosine; d = 2'-deoxy (DNA)

test system: human PKK mRNA; test: Antisense inhibition of human PKK mRNA in HepaRG cells, 1,000 nM, MOE/deoxy/cEt oligonucleotides (Example 3); assay type: cell-based; details: HepaRG cells, 1,000 nM antisense oligonucleotide, Table 29
How it was run: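 Readout is percent PKK mRNA reduction against untreated controls, by real-time PCR (RTS3454) adjusted for total RNA via RIBOGREEN. Oligonucleotides, phosphorothioate gapmers of 16 nucleosides with cEt, MOE and deoxy sugars, were delivered at 1,000 nM by electroporation to 20,000 HepaRG cells/well for roughly 24 h.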

Point of comparison: “548600 (eT*eG*kG*dT*dG*dG*dT*dG*dG*dG*dA*dT*dT*kG*kG*eT; antisense) [compound 548600]”, “% inhibition” value 53%. Against it:
- 548540 (antisense eG*eA*k[5mC]*dA*d[5mC]*d[5mC]*dT*dG*d[5mC]*dT*dT*dG*dA*kT*kT*eA) [compound 548540] — lower, 7%

same assay, conditions: HepaRG cells, electroporation with 1,000 nM antisense oligonucleotide, approx. 24 hours, PKK mRNA by RT-PCR (RTS3454), relative to untreated control cells; Table 25 experiment

Point of comparison: “548222 (eA*eA*kT*d[5mC]*dA*dT*dG*d[5mC]*d[5mC]*dT*dT*dG*dT*kG*kG*eG; antisense) [compound 548222]”, “% inhibition” value 32%. Against it:
- 548216 (eG*eT*kG*d[5mC]*dA*dT*dA*dG*dA*d[5mC]*d[5mC]*d[5mC]*d[5mC]*kA*kA*e[5mC]; antisense) [compound 548216] — higher, 45%
- 548172 (eT*e[5mC]*kA*dG*dT*dT*dG*d[5mC]*dG*dA*d[5mC]*d[5mC]*dT*k[5mC]*kG*e[5mC]; antisense) [compound 548172] — lower, 0%
- 548202 (eG*e[5mC]*kT*dG*dT*dT*d[5mC]*dT*dA*dA*dT*dG*dT*kG*kG*e[5mC]; antisense) [compound 548202] — lower, 9%
- 548187 (e[5mC]*eA*kT*d[5mC]*d[5mC]*dT*dA*dT*d[5mC]*d[5mC]*dG*dT*dG*kT*kT*e[5mC]; antisense) [compound 548187] — higher, 33%
- 548214 (e[5mC]*eA*kG*dA*d[5mC]*dA*dG*d[5mC]*d[5mC]*d[5mC]*dA*d[5mC]*d[5mC]*kA*kA*e[5mC]; antisense) [compound 548214] — higher, 55%

same assay, conditions: HepaRG cells, electroporation with 1,000 nM antisense oligonucleotide, approx. 24 hours, PKK mRNA by RT-PCR (RTS3454), relative to untreated control cells; Table 26 experiment

Point of comparison: “548258 (antisense e[5mC]*eA*kA*dG*dT*dG*d[5mC]*dT*d[5mC]*d[5mC]*d[5mC]*d[5mC]*dA*kT*kG*e[5mC]) [compound 548258]”, “% inhibition” value 0%. Against it:
- 548290 (eG*eA*kG*d[5mC]*dA*d[5mC]*dT*d[5mC]*dT*dT*dA*dT*dT*kA*kG*e[5mC]; antisense) [compound 548290] — higher, 31%
- 548249 (antisense eT*eG*kT*dG*dA*dT*dG*d[5mC]*dG*dA*dT*dT*dT*kT*k[5mC]*e[5mC]) [compound 548249] — higher, 22%
- 548303 (eG*eG*kG*d[5mC]*d[5mC]*d[5mC]*d[5mC]*d[5mC]*dA*dT*dG*dT*d[5mC]*k[5mC]*kA*eT; antisense) [compound 548303] — the same, 0%
- 548294 (eG*eT*kG*dT*dG*d[5mC]*dA*d[5mC]*dT*dT*dT*d[5mC]*dT*kG*kG*eT; antisense) [compound 548294] — higher, 33%
- 548237 (eG*eT*kA*dT*dA*d[5mC]*dA*dT*d[5mC]*dT*dA*dG*dA*kT*kG*eA; antisense) [compound 548237] — higher, 22%

same assay, conditions: HepaRG cells, electroporation with 1,000 nM antisense oligonucleotide, approximately 24 hours, primer probe set RTS3454, relative to untreated control cells; experiment of Table 23

Point of comparison: “547988 (antisense eT*eG*kA*d[5mC]*dA*dG*d[5mC]*dG*dA*dA*dT*d[5mC]*dA*kT*k[5mC]*eT) [compound 547988]”, “% inhibition” value 56%. Against it:
- 547929 (eA*eG*kA*dT*dG*dG*dT*d[5mC]*d[5mC]*dG*dA*d[5mC]*dA*k[5mC]*kA*e[5mC]; antisense) [compound 547929] — higher, 65%
- 547985 (antisense eG*e[5mC]*kG*dA*dA*dT*d[5mC]*dA*dT*d[5mC]*dT*dT*dT*kG*kT*eG) [compound 547985] — higher, 63%
- 547945 (eA*eA*k[5mC]*dT*dT*dG*dG*dT*dG*dT*dG*d[5mC]*d[5mC]*kA*k[5mC]*eT; antisense) [compound 547945] — higher, 62%
- 547970 (antisense e[5mC]*eT*k[5mC]*d[5mC]*d[5mC]*dG*dG*dG*dT*dA*dA*dA*dT*kT*kT*eT) [compound 547970] — lower, 42%

same assay, conditions: HepaRG cells, electroporation with 1,000 nM antisense oligonucleotide, approximately 24 hours, primer probe set RTS3454, relative to untreated control cells; experiment of Table 24

Point of comparison: “547999 (antisense e[5mC]*e[5mC]*kT*dT*dG*dT*dG*dT*d[5mC]*d[5mC]*d[5mC]*dA*dT*kA*k[5mC]*eG) [compound 547999]”, “% inhibition” value 50%. Against it:
- 548013 (eG*eT*k[5mC]*d[5mC]*d[5mC]*d[5mC]*dA*dG*dT*dG*dT*dT*dA*k[5mC]*kA*e[5mC]; antisense) [compound 548013] — lower, 37%
- 548039 (eG*eA*kA*dA*dG*dG*dT*dG*dT*dA*dT*d[5mC]*dT*kT*kT*eT; antisense) [compound 548039] — lower, 29%

same assay, conditions: PKK mRNA, HepaRG cells, 1,000 nM antisense oligonucleotide; Table 31

Point of comparison: “548653 (antisense eT*e[5mC]*kG*dG*d[5mC]*dT*d[5mC]*d[5mC]*dT*dG*dG*d[5mC]*dA*kG*k[5mC]*eA) [compound 548653]”, “% inhibition” value 46%. Against it:
- 548676 (antisense eG*eT*kG*dA*dA*dT*d[5mC]*dA*dG*dA*dG*d[5mC]*dA*kG*kT*eG) [compound 548676] — higher, 63%
- 548674 (antisense eG*eA*kG*dA*dG*dA*d[5mC]*dG*dG*d[5mC]*dA*d[5mC]*d[5mC]*k[5mC]*kT*eG) [compound 548674] — lower, 4%

same assay, conditions: Table 19; HepaRG cells, electroporation with 1,000 nM antisense oligonucleotide, approximately 24 hours; PKK mRNA by RT-PCR (RTS3454), relative to untreated control cells

Point of comparison: “548114 (antisense eT*eG*kG*dT*dG*dA*d[5mC]*dT*dG*d[5mC]*dA*dT*d[5mC]*kT*kG*eA) [compound 548114]”, “% inhibition” value 70%. Against it:
- 548102 (antisense eG*eT*kA*d[5mC]*dT*d[5mC]*dA*dG*d[5mC]*dG*dA*d[5mC]*dT*kT*kT*eG) [compound 548102] — lower, 58%
- 548149 (eG*eA*k[5mC]*dA*dT*dT*dG*dT*d[5mC]*d[5mC]*dT*d[5mC]*dA*kG*k[5mC]*eA; antisense) [compound 548149] — lower, 39%
- 548099 (antisense e[5mC]*eT*k[5mC]*dA*dG*d[5mC]*dG*dA*d[5mC]*dT*dT*dT*dG*kG*kT*eG) [compound 548099] — lower, 55%
- 548130 (eA*eT*kT*dT*dG*dA*d[5mC]*dT*dT*dG*dA*dA*d[5mC]*kT*k[5mC]*eA; antisense) [compound 548130] — lower, 27%

same assay, conditions: Table 20; HepaRG cells, electroporation with 1,000 nM antisense oligonucleotide, approximately 24 hours; PKK mRNA by RT-PCR (RTS3454), relative to untreated control cells

Point of comparison: “547856 (antisense e[5mC]*eA*kT*dA*dT*d[5mC]*dA*dA*d[5mC]*dT*d[5mC]*d[5mC]*dT*kT*kT*eA) [compound 547856]”, “% inhibition” value 93%. Against it:
- 547909 (e[5mC]*e[5mC]*kA*dA*dT*dT*dT*d[5mC]*dT*dG*dA*dA*dA*kG*kG*eG; antisense) [compound 547909] — lower, 82%
- 547913 (eG*e[5mC]*kA*dA*d[5mC]*dA*dT*d[5mC]*d[5mC]*dA*d[5mC]*dA*dT*k[5mC]*kT*eG; antisense) [compound 547913] — lower, 71%
- 547914 (eG*eG*k[5mC]*dA*dA*d[5mC]*dA*dT*d[5mC]*d[5mC]*dA*d[5mC]*dA*kT*k[5mC]*eT; antisense) [compound 547914] — lower, 74%

same assay, conditions: Table 21 experiment; HepaRG cells, electroporation with 1,000 nM antisense oligonucleotide, approx. 24 hours; PKK mRNA by RT-PCR (RTS3454), relative to untreated control cells

Point of comparison: “547828 (e[5mC]*e[5mC]*kT*dG*dT*dT*d[5mC]*dG*dA*dT*dG*dT*dA*k[5mC]*kT*eT; antisense) [compound 547828]”, “% inhibition” value 63%. Against it:
- 547809 (eT*e[5mC]*kA*dT*d[5mC]*dT*dG*dG*d[5mC]*dA*dG*dT*dA*kT*kT*eG; antisense) [compound 547809] — lower, 33%

same assay, conditions: Table 22 experiment; HepaRG cells, electroporation with 1,000 nM antisense oligonucleotide, approx. 24 hours; PKK mRNA by RT-PCR (RTS3454), relative to untreated control cells

Point of comparison: “547913 (eG*e[5mC]*kA*dA*d[5mC]*dA*dT*d[5mC]*d[5mC]*dA*d[5mC]*dA*dT*k[5mC]*kT*eG; antisense) [compound 547913]”, “% inhibition” value 61%. Against it:
- 547909 (e[5mC]*e[5mC]*kA*dA*dT*dT*dT*d[5mC]*dT*dG*dA*dA*dA*kG*kG*eG; antisense) [compound 547909] — lower, 51%
- 547887 (e[5mC]*e[5mC]*kG*dG*dT*dA*d[5mC]*dT*d[5mC]*dT*dG*d[5mC]*d[5mC]*kT*kT*eG; antisense) [compound 547887] — higher, 99%
- 547856 (antisense e[5mC]*eA*kT*dA*dT*d[5mC]*dA*dA*d[5mC]*dT*d[5mC]*d[5mC]*dT*kT*kT*eA) [compound 547856] — lower, 51%
- 547914 (eG*eG*k[5mC]*dA*dA*d[5mC]*dA*dT*d[5mC]*d[5mC]*dA*d[5mC]*dA*kT*k[5mC]*eT; antisense) [compound 547914] — higher, 63%

same assay, conditions: Table 27; HepaRG cells, 1,000 nM antisense oligonucleotide; human PKK mRNA

Point of comparison: “548377 (eG*eT*kG*dT*dG*d[5mC]*dT*dG*dA*dG*dG*dT*dT*kT*kG*e[5mC]; antisense) [compound 548377]”, “% inhibition” value 80%. Against it:
- 548324 (eA*e[5mC]*kA*dT*dA*dA*dA*dT*dT*d[5mC]*d[5mC]*d[5mC]*d[5mC]*kA*k[5mC]*eA; antisense) [compound 548324] — lower, 29%
- 548375 (eT*e[5mC]*kG*dA*d[5mC]*dT*dT*d[5mC]*dT*d[5mC]*d[5mC]*dT*dG*kT*k[5mC]*eT; antisense) [compound 548375] — lower, 27%
- 548314 (eA*e[5mC]*kA*dA*d[5mC]*d[5mC]*dT*dG*dT*d[5mC]*d[5mC]*dA*dT*kT*k[5mC]*e[5mC]; antisense) [compound 548314] — lower, 43%
- 548356 (antisense eT*eG*kT*dT*dG*dG*dT*d[5mC]*dA*dG*d[5mC]*dA*dT*kT*k[5mC]*eA) [compound 548356] — lower, 63%

same assay, conditions: Table 28; HepaRG cells, 1,000 nM antisense oligonucleotide; human PKK mRNA

Point of comparison: “548489 (antisense eT*eT*k[5mC]*d[5mC]*d[5mC]*d[5mC]*dA*dG*dA*dG*dG*dT*dG*kA*kT*eA) [compound 548489]”, “% inhibition” value 16%. Against it:
- 548526 (antisense e[5mC]*eT*kA*dA*dG*d[5mC]*dT*dG*dT*dG*dT*d[5mC]*dT*k[5mC]*kA*eT) [compound 548526] — higher, 26%

same assay, conditions: Table 30; human PKK mRNA, HepaRG cells, 1,000 nM antisense oligonucleotide

Point of comparison: “548441 (antisense eT*e[5mC]*k[5mC]*dT*dA*dT*dA*dA*d[5mC]*dA*dG*dT*dA*kT*k[5mC]*eA) [compound 548441]”, “% inhibition” value 42%. Against it:
- 548401 (eG*e[5mC]*k[5mC]*dA*dG*d[5mC]*dT*dA*dT*dG*dG*dG*dA*kA*k[5mC]*eA; antisense) [compound 548401] — higher, 71%
- 548433 (antisense eT*eA*kT*d[5mC]*dA*d[5mC]*dT*dG*dT*dA*d[5mC]*d[5mC]*dT*kA*kT*eA) [compound 548433] — lower, 33%
